US20080021056A1, “Fused, Tricyclic Sulfonamide Inhibitors of Gamma Secretase” (priority 2006, published 2008)
“And” between values parts separate entries of the source, which are not always exact repeats. Equal values may be shown once.

target: T1, gamma-secretase (Homo sapiens, UniProt P49768); assay: Gamma-secretase APP enzyme assay; type: biochemical; conditions: cleavage of MBP-C125 Swe substrate at the Aβ40 site; partially purified extract of IMR-32 cell membranes; ELISA
T1 construct: partially purified extract of IMR-32 cell membranes as the gamma-secretase enzyme preparation; endogenous in cells; host or cells: IMR-32 cell membranes (partially purified extract)
Source text: The gamma-secretase APP enzyme assay was designed to measure the specific proteolytic cleavage of an APP substrate (MBP-C125 Swe fusion protein) at the Aβ40 site. The assay used a partially purified extract of IMR-32 cell membranes as the gamma-secretase enzyme preparation and a recombinant fusion protein containing the C-terminal 125 amino acids of the Swedish variant of the APP (MBP-C125swe) as the substrate. This assay involved two steps beginning with the enzymatic reaction generating a cleavage product that was captured with an immobilized antibody specific for the neo-epitope Aβ40 site. The captured cleavage product was then detected in a sandwich ELISA assay with a biotinylated reporter antibody that is specific to Aβ (17-28). Streptavidin-linked alkaline phosphatase was then added that would generate a fluorescent signal proportional to the amount of cleavage product. This assay was used to discover small molecule inhibitors of gamma-secretase.
Briefly, a 149 mg/ml solution of BIGCHAP detergent was made with water at 42° C. and then rotated for 30 minutes at the same temperatures This warmed solution of BigCHAPS (N,N-Bis(3-D-gluconamidopropyl)cholamide) detergent was used to dissolve Brain Extract Type-V (lipid containing a minimum of 40% phosphatidylethanolamine) from Signa (St. Louis, Mo.) to a concentration of 8 mg/ml. This solution containing BigCHAPS and lipid at 8 mg/ml is then diluted to 0.53 mg/ml lipid with a pre-warmed solution of Hepes and sodium chloride. This final solution containing Hepes buffer, sodium chloride, BigCHAPS detergent and lipid is used to create working solutions of both gamma-secretase (25 Units) and the MBP-C125 substrate (0.05 mg/ml).
Gamma-secretase was then added to a 96-well micro-titre plate and then incubated with various concentrations of inhibitor for 30 minutes at 37° C. MBPC125 substrate was then added to initiate the reaction that would run for two hours at 37° C. The reaction was quenched with the addition of SDS to a final concentration of 0.1% and then 100 μl of the reaction mixture was transferred to a capture ELISA plate and incubated overnight at 4° C. Detection of the cleavage product was performed using a standard sandwich ELISA assay and quantified using a six point standard curve.

| SMILES | IC50 |
| --- | --- |
| O=S(=O)(c1ccc(F)cc1)N1c2ccccc2-c2n[nH]cc2C1C1CC1 (stereo not shown) [4-cyclopropyl-5-(4-fluorophenylsulfonyl)-4,5-dihydro-2H-pyrazolo[4,3-c]quinoline] | 0.1 to 100 nM |
| CC1c2c[nH]nc2-c2ccc(OC(=O)N(C)C)cc2N1S(=O)(=O)c1ccc(Cl)cc1 (stereo not shown) [5-(4-chlorophenylsulfonyl)-4-methyl-4,5-dihydro-1H-pyrazolo[4,3-c]quinolin-7-yl dimethylcarbamate] | 0.1 to 100 nM |
| O=S(=O)(c1ccc(C(F)(F)F)cc1)N1c2ccc(F)cc2-c2[nH]ncc2C1C1CC1 (racemic) [4-cyclopropyl-8-fluoro-5-(4-(trifluoromethyl)phenylsulfonyl)-4,5-dihydro-1H-pyrazolo[4,3-c]quinoline] | 0.1 to 100 nM |
| O=S(=O)(c1ccc(C(F)(F)F)cc1)N1Cc2c[nH]nc2-c2cc(F)c(F)cc21 [7,8-difluoro-5-(4-(trifluoromethyl)phenylsulfonyl)-4,5-dihydro-2H-pyrazolo[4,3-c]quinoline] | 0.1 to 100 nM |
| CC1c2cn[nH]c2-c2cc(F)ccc2N1S(=O)(=O)c1ccccn1 (stereo not shown) [8-fluoro-4-methyl-5-(pyridin-2-ylsulfonyl)-4,5-dihydro-1H-pyrazolo[4,3-c]quinoline] | 101 to 500 nM and 0.1 to 100 nM |
| COc1cccc2c1-c1[nH]ncc1C(C)N2S(=O)(=O)c1ccc(Cl)cc1 (stereo not shown) [5-[(4-chlorophenyl)sulfonyl]-9-methoxy-4-methyl-4,5-dihydro-1H-pyrazolo[4,3-c]quinoline] | 1000 to 10000 nM |
| O=c1c2cn[nH]c2c2ccccc2n1S(=O)(=O)c1ccc(Cl)cc1 [5-[(4-chlorophenyl)sulfonyl]-1,5-dihydro-4H-pyrazolo[4,3-c]quinolin-4-one] | 101 to 500 nM |
| O=S(=O)(c1ccc(Cl)cn1)N1c2cc(F)c(F)cc2-c2[nH]ncc2C1C1CC1 (stereo not shown) [5-(5-chloropyridin-2-ylsulfonyl)-4-cyclopropyl-7,8-difluoro-4,5-dihydro-1H-pyrazolo[4,3-c]quinoline] | 0.1 to 100 nM |
| O=S(=O)(c1ccc(OC(F)(F)F)cc1)N1c2cc(OC(F)(F)F)ccc2-c2n[nH]cc2[C@H]1C1CC1 [(R)-4-cyclopropyl-7-(trifluoromethoxy)-5-(4-(trifluoromethoxy)phenylsulfonyl)-4,5-dihydro-2H-pyrazolo[4,3-c]quinoline] | 0.1 to 100 nM |
| O=S(=O)(c1ccc(C(F)(F)F)cc1)N1c2cc(F)c(F)cc2-c2[nH]ncc2C1C1CC1 (racemic) [4-cyclopropyl-7,8-difluoro-5-(4-(trifluoromethyl)phenylsulfonyl)-4,5-dihydro-1H-pyrazolo[4,3-c]quinoline] | 0.1 to 100 nM |
| CC1c2c[nH]nc2-c2cc3c(cc2N1S(=O)(=O)c1ccc(Cl)cc1)OCO3 (stereo not shown) [5-(4-chlorophenylsulfonyl)-4-methyl-4,5-dihydro-2H-[1,3]dioxolo[4,5-g]pyrazolo[4,3-c]quinoline] | 0.1 to 100 nM |
| CC(C)C1c2c[nH]nc2-c2cc(F)c(F)cc2N1S(=O)(=O)c1ccc(C(F)(F)F)cc1 (stereo not shown) [7,8-difluoro-4-isopropyl-5-(4-(trifluoromethyl)phenylsulfonyl)-4,5-dihydro-2H-pyrazolo[4,3-c]quinoline] | 0.1 to 100 nM |

Second part, the compound after the results:

| IC50 | SMILES |
| --- | --- |
| 0.1 to 100 nM | O=S(=O)(c1ccc(C(F)(F)F)nc1)N1c2ccc(C(F)(F)F)cc2-c2[nH]ncc2[C@H]1C1CC1 [(R)-4-cyclopropyl-8-(trifluoromethyl)-5-(6-(trifluoromethyl)pyridin-3-ylsulfonyl)-4,5-dihydro-1H-pyrazolo[4,3-c]quinoline] |
| 0.1 to 100 nM | O=S(=O)(c1ccc(OC(F)(F)F)cc1)N1c2cc(F)c(F)cc2-c2[nH]ncc2C1C1CC1 (stereo not shown) [4-cyclopropyl-7,8-difluoro-5-(4-(trifluoromethoxy)phenylsulfonyl)-4,5-dihydro-1H-pyrazolo[4,3-c]quinoline] |
| 0.1 to 100 nM | CC1c2c[nH]nc2-c2ccccc2N1S(=O)(=O)c1ccc(Cl)cc1 (racemic) [5-[(4-chlorophenyl)sulfonyl]-4-methyl-4,5-dihydro-2H-pyrazolo[4,3-c]quinoline] |
| 0.1 to 100 nM | O=S(=O)(c1ccc(Cl)cc1)N1c2ccccc2-c2n[nH]cc2C1C(F)(F)F (stereo not shown) [5-(4-chlorophenylsulfonyl)-4-(trifluoromethyl)-4,5-dihydro-2H-pyrazolo[4,3-c]quinoline] |
| 0.1 to 100 nM | O=S(=O)(c1ccc(Cl)s1)N1c2cc(F)c(F)cc2-c2n[nH]cc2C1C1CC1 (stereo not shown) [5-(5-chlorothiophen-2-ylsulfonyl)-4-cyclopropyl-7,8-difluoro-4,5-dihydro-2H-pyrazolo[4,3-c]quinoline] |
| 0.1 to 100 nM | CCC1c2cn[nH]c2-c2ccccc2N1S(=O)(=O)c1ccc(Cl)cc1 (stereo not shown) [5-(4-chlorophenylsulfonyl)-4-ethyl-4,5-dihydro-1H-pyrazolo[4,3-c]quinoline] |
| 101 to 500 nM | CC1c2cn[nH]c2-c2cc(F)ccc2N1S(=O)(=O)c1cccnc1 (racemic) [8-fluoro-4-methyl-5-(pyridin-3-ylsulfonyl)-4,5-dihydro-1H-pyrazolo[4,3-c]quinoline] |
| 0.1 to 100 nM | CC1c2cn[nH]c2-c2cc(F)ccc2N1S(=O)(=O)c1ccc(F)cc1 (stereo not shown) [8-fluoro-5-(4-fluorophenylsulfonyl)-4-methyl-4,5-dihydro-1H-pyrazolo[4,3-c]quinoline] |
| 1000 to 10000 nM | CC1c2cn[nH]c2-c2cc(F)ccc2N1S(=O)(=O)c1ccc(-c2ccccn2)s1 (stereo not shown) [8-fluoro-4-methyl-5-(5-(pyridin-2-yl)thiophen-2-ylsulfonyl)-4,5-dihydro-1H-pyrazolo[4,3-c]quinoline] |
| 0.1 to 100 nM | O=S(=O)(c1ccc(F)cc1)N1c2cc(F)c(F)cc2-c2n[nH]cc2C1C1CC1 (stereo not shown) [4-cyclopropyl-7,8-difluoro-5-(4-fluorophenylsulfonyl)-4,5-dihydro-2H-pyrazolo[4,3-c]quinoline] |
| 0.1 to 100 nM | O=S(=O)(c1ccc(Cl)cc1)N1c2ccccc2-c2n[nH]cc2C1C1CC1 (stereo not shown) [5-(4-chlorophenylsulfonyl)-4-cyclopropyl-4,5-dihydro-2H-pyrazolo[4,3-c]quinoline] |
| 0.1 to 100 nM | CC1c2c[nH]nc2-c2cc(F)ccc2N1S(=O)(=O)c1ccc(Cl)cc1 (racemic) [5-[(4-chlorophenyl)sulfonyl]-8-fluoro-4-methyl-4,5-dihydro-2H-pyrazolo[4,3-c]quinoline] |
| 0.1 to 100 nM | O=S(=O)(c1ncc(Cl)s1)N1c2cc(F)c(F)cc2-c2n[nH]cc2C1C1CC1 (stereo not shown) [5-chloro-2-(4-cyclopropyl-7,8-difluoro-1H-pyrazolo[4,3-c]quinolin-5(4H)-ylsulfonyl)thiazole] |
| 0.1 to 100 nM | Cc1nc2c(s1)N(S(=O)(=O)c1ccc(C(F)(F)F)cc1)C(C1CC1)c1c[nH]nc1-2 (stereo not shown) [4-cyclopropyl-7-methyl-5-(4-(trifluoromethyl)phenylsulfonyl)-4,5-dihydro-1H-pyrazolo[3,4-d]thiazolo[5,4-b]pyridine] |
| 0.1 to 100 nM | CC1c2c[nH]nc2-c2cc(O)ccc2N1S(=O)(=O)c1ccc(Cl)cc1 (stereo not shown) [5-(4-chlorophenylsulfonyl)-4-methyl-4,5-dihydro-2H-pyrazolo[4,3-c]quinolin-8-ol] |

same assay, conditions: cleavage of MBP-C125 Swe substrate at the Aβ40 site; partially purified extract of IMR-32 cell membranes; ELISA; enantiomer A

| IC50 [nM] | SMILES |
| --- | --- |
| 101 to 500 | CC1c2c[nH]nc2-c2ccccc2N1S(=O)(=O)c1ccccn1 (single isomer, unassigned) [4-methyl-5-(pyridin-2-ylsulfonyl)-4,5-dihydro-1H-pyrazolo[4,3-c]quinoline] |
| 1000 to 10000 | CC1c2cnc(N)nc2-c2cc(F)ccc2N1S(=O)(=O)c1ccc(F)cc1 (single isomer, unassigned) [9-fluoro-6-(4-fluorophenylsulfonyl)-5-methyl-5,6-dihydropyrimido[5,4-c]quinolin-2-amine] |
| 0.1 to 100 | O=S(=O)(c1ccc(C(F)(F)F)cc1)N1c2ccc(F)cc2-c2[nH]ncc2C1C1CC1 (single isomer, unassigned) [4-cyclopropyl-8-fluoro-5-(4-(trifluoromethyl)phenylsulfonyl)-4,5-dihydro-1H-pyrazolo[4,3-c]quinoline] |
| 0.1 to 100 | O=S(=O)(c1ccc(Cl)s1)N1c2cc(F)c(F)cc2-c2n[nH]cc2C1C1CC1 (single isomer, unassigned) [5-(5-chlorothiophen-2-ylsulfonyl)-4-cyclopropyl-7,8-difluoro-4,5-dihydro-2H-pyrazolo[4,3-c]quinoline] |
| 0.1 to 100 | CC1c2cn[nH]c2-c2cc(O)c(O)cc2N1S(=O)(=O)c1ccc(Cl)cc1 (single isomer, unassigned) [5-(4-chlorophenylsulfonyl)-4-methyl-4,5-dihydro-1H-pyrazolo[4,3-c]quinoline-7,8-diol] |

same assay, conditions: cleavage of MBP-C125 Swe substrate at the Aβ40 site; partially purified extract of IMR-32 cell membranes; ELISA; enantiomer B

| IC50 [nM] | SMILES |
| --- | --- |
| 1000 to 10000 | CC1c2c[nH]nc2-c2ccccc2N1S(=O)(=O)c1ccccn1 (single isomer, unassigned) [4-methyl-5-(pyridin-2-ylsulfonyl)-4,5-dihydro-1H-pyrazolo[4,3-c]quinoline] |
| 101 to 500 | CC1c2cnc(N)nc2-c2cc(F)ccc2N1S(=O)(=O)c1ccc(F)cc1 (single isomer, unassigned) [9-fluoro-6-(4-fluorophenylsulfonyl)-5-methyl-5,6-dihydropyrimido[5,4-c]quinolin-2-amine] |
| 101 to 500 | O=S(=O)(c1ccc(C(F)(F)F)cc1)N1c2ccc(F)cc2-c2[nH]ncc2C1C1CC1 (single isomer, unassigned) [4-cyclopropyl-8-fluoro-5-(4-(trifluoromethyl)phenylsulfonyl)-4,5-dihydro-1H-pyrazolo[4,3-c]quinoline] |
| 0.1 to 100 | O=S(=O)(c1ccc(Cl)s1)N1c2cc(F)c(F)cc2-c2n[nH]cc2C1C1CC1 (single isomer, unassigned) [5-(5-chlorothiophen-2-ylsulfonyl)-4-cyclopropyl-7,8-difluoro-4,5-dihydro-2H-pyrazolo[4,3-c]quinoline] |
| 101 to 500 | CC1c2cn[nH]c2-c2cc(O)c(O)cc2N1S(=O)(=O)c1ccc(Cl)cc1 (single isomer, unassigned) [5-(4-chlorophenylsulfonyl)-4-methyl-4,5-dihydro-1H-pyrazolo[4,3-c]quinoline-7,8-diol] |
